Results reported in PubChem BioAssay (NCI).
“And” between values parts separate entries of the source, which are not always exact repeats. Equal values may be shown once.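 How tested: cells in 96-well plates exposed to compound for 48 hours at five concentrations. At the GI50, growth is halved. TGI: total growth inhibition.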

What was measured:
Experiment in all cases: inhibition of tumour cell growth, NCI panel, 48 h
786-0 renal = tested on: 786-0 renal
CAKI-1 renal = tested on: CAKI-1 renal
CCRF-CEM leukemia = tested on: CCRF-CEM leukemia
HCC-2998 colon = tested on: HCC-2998 colon
HS 578T breast = tested on: HS 578T breast
M14 melanoma = tested on: M14 melanoma
NCI-H460 lung = tested on: NCI-H460 lung
OVCAR-3 ovarian = tested on: OVCAR-3 ovarian
SK-MEL-5 melanoma = tested on: SK-MEL-5 melanoma
SR leukemia = tested on: SR leukemia
UACC-257 melanoma = tested on: UACC-257 melanoma
HOP-92 NSCLC = tested on: HOP-92 NSCLC

| Structure (SMILES) | TGI (786-0 renal) | TGI (CAKI-1 renal) | TGI (CCRF-CEM leukemia) [µM] | TGI (HCC-2998 colon) [µM] | TGI (HS 578T breast) | TGI (M14 melanoma) | TGI (NCI-H460 lung) | TGI (OVCAR-3 ovarian) | TGI (SK-MEL-5 melanoma) | TGI (SR leukemia) [µM] | TGI (UACC-257 melanoma) | TGI (HOP-92 NSCLC) [µM] | GI50 (HCC-2998 colon) [µM] | GI50 (HOP-92 NSCLC) [µM] | GI50 (HS 578T breast) [µM] | GI50 (M14 melanoma) [µM] | GI50 (OVCAR-3 ovarian) [µM] | GI50 (SK-MEL-5 melanoma) [µM] | GI50 (NCI-H460 lung) [µM] | GI50 (UACC-257 melanoma) [µM] |
| --- | --- | --- | --- | --- | --- | --- | --- | --- | --- | --- | --- | --- | --- | --- | --- | --- | --- | --- | --- | --- |
| COC1=C(OC)C(=O)C(C/C=C/c2c(Cl)nc3sccn23)=C(C)C1=O | 49.2 µM | 50.7 µM | 41.1 | 39.3 | 54.6 µM | 32.5 µM | 38.6 µM | 29.9 µM | 12.9 µM | 66 | 5.36 µM |  |  |  |  |  |  |  |  |  |
| C[n+]1ccc2/c(=C\C#N)c3ccccc3n21 | > 100 µM | > 100 µM | 51.4 | 50.6 |  | > 100 µM | > 100 µM | 34.2 µM | 35.6 µM | 56.5 | 13.9 µM | 63.2 |  |  |  |  |  |  |  |  |
| CC(=O)C(C(=O)C(=O)Nc1cc(Cl)c(Cl)cc1Cl)c1csc(N)n1 (stereo not drawn) |  | > 100 µM | > 100 | > 100 |  | > 100 µM | > 100 µM |  | > 100 µM | > 100 | > 100 µM | > 100 |  |  |  |  |  |  |  |  |
| O=[N+]([O-])c1cc(C(F)(F)F)cc2c1SC1=Nc3ccccc3CN12 |  | > 100 µM | > 100 | > 100 |  |  | > 100 µM | > 100 µM | > 100 µM |  | > 100 µM | > 100 |  |  |  |  |  |  |  |  |
| Oc1ccccc1CNCc1ccccc1O | > 100 µM | > 100 µM | > 100 | 36.7 | > 100 µM | > 100 µM | > 100 µM | > 100 µM | > 100 µM |  | > 100 µM | > 100 |  |  |  |  |  |  |  |  |
| NCCNc1ccc(NCCN)c2c1C(=O)c1c(O)ccc(O)c1C2=O | 0.0555 µM and 0.0497 µM | 0.879 µM and 0.123 µM | 3.79 | 1.24 | 0.851 µM and 0.902 µM | 1.27 µM and 1.32 µM | 0.159 µM and 0.178 µM | 2.18 µM and 1.66 µM | 1.47 µM and 1.11 µM | 0.0171 | 3.11 µM and 4.1 µM | 0.0789 | 0.147 | 0.229 | 0.225 | 0.0324 | 0.385 | 0.0709 |  |  |
| CCC/C=C/C=C\C(=O)O[C@@H]1[C@@H](C)[C@]2(O)[C@@H]3C=C(C)C(=O)[C@H]3CC(COC(C)=O)=C[C@H]2[C@@H]2C(C)(C)[C@]12OC(C)=O |  | 72.2 µM | 36.2 | 58.3 |  |  | 63.7 µM | 91.2 µM | 108 µM |  | 91.5 µM | 156 |  |  |  |  |  |  |  |  |
| CCCc1cn2c(/C=N/N=C(N)N)c(-c3ccc([N+](=O)[O-])cc3)nc2s1 | 1.97 µM | 3.1 µM | 1.3 | 2.03 |  | 3.18 µM |  | 0.377 µM | 54 µM |  | 3.03 µM | 74 |  |  |  |  |  |  |  |  |
| Cn1cc(-c2csc(-c3cn(CCCN4CCCCC4)c4ccc(Br)cc34)n2)c2cccnc21 |  |  |  | 3.61 | 5.41 µM |  | 3.4 µM | 3.38 µM | 3.41 µM |  | 3.43 µM | 3.63 | 1.86 | 1.79 | 2.09 |  | 1.8 | 1.86 | 1.87 | 1.8 |
| Oc1c(Cl)c(Cl)c(O)c(-c2cnc(-c3ncc(-c4c(O)c(Cl)c(Cl)c(O)c4Cl)s3)s2)c1Cl | 53.2 µM | 41.2 µM | > 100 | > 100 | 56.5 µM | 47.2 µM | > 100 µM | 52.4 µM | 30.1 µM | > 100 | 97.8 µM | > 100 |  |  |  |  |  |  |  |  |
| O=C(N/N=C/c1cc(Cl)cc(Cl)c1[OH2+])c1ccncc1.O=S(=O)([O-])[O-].[Fe+2] | 53.9 µM |  | 15.8 | > 100 |  | 41.1 µM | 22.4 µM | 53.8 µM | > 100 µM | 54.6 | 41.7 µM | 9.66 |  | 3.71 |  |  |  |  |  |  |
| CC(=O)OC1(C)CC(C)C(=O)C(C(O)CC2CC(=O)NC(=O)C2)C1 (stereo not drawn) | 0.0669 µM |  |  | 0.0409 |  | 0.172 µM and 0.0421 µM | 0.363 µM and 0.224 µM | 1.62 µM | 0.147 µM and 0.023 µM |  | 0.348 µM and 0.145 µM | 0.0121 |  |  |  |  |  |  |  |  |
| COc1cccc2c1C(=O)c1c(O)c3c(c(O)c1C2=O)CC(O)(C(C)=O)CC3OC1OC(COC(C)=O)C(OC(C)=O)C(OC(C)=O)C1OC(C)=O (stereo not drawn) | 56.3 µM |  | 0.131 |  | 64.8 µM | > 100 µM | > 100 µM | 31.2 µM | > 100 µM | 25.8 | 36.6 µM | 32.2 |  |  |  |  |  |  |  |  |
| C[N+]1(C)C/C(=C\C=C\c2ccccc2)C(=O)/C(=C/C=C/c2ccccc2)C1 | 55.3 µM | > 82.3 µM | 13.7 | 34.2 | > 61.4 µM | 39.1 µM | 59.1 µM | 42.6 µM | 25.2 µM | 23.9 | 26 µM | 70.3 |  |  |  |  |  |  |  |  |
| CC(C)(C)c1cc(OCc2n[nH]c(=S)n2N)c(Cl)cc1OCc1n[nH]c(=S)n1N | > 100 µM | > 100 µM | > 100 | > 100 | > 100 µM | > 100 µM | 77.9 µM | > 100 µM | 54.6 µM | > 100 | > 100 µM | > 100 |  |  |  |  |  |  |  |  |
| COc1cc2c(cc1OC)-c1cc3cc(OC)c(OC)cc3c(C)[n+]1CC2 (tested in a mixture with another compound) | > 100 µM | > 100 µM | 77 | 62.5 | > 100 µM | > 100 µM | 71.2 µM | > 100 µM | > 100 µM | […] | 46.3 µM | > 100 |  |  |  |  |  |  |  |  |
| CCn1c(=O)c2c3ccc(O)cc3[nH]c2c2ccc(O)cc21 |  | > 100 µM | > 100 | > 100 | > 100 µM | > 100 µM |  | > 100 µM | > 100 µM | > 100 | > 100 µM | > 100 |  |  |  |  |  |  |  |  |
| O=C(N/N=C/c1cc(Cl)cc(Cl)c1[O-])c1ccccc1O.O=C(N/N=C/c1cc(Cl)cc(Cl)c1[O-])c1ccccc1O.[Fe+2] |  | 69.2 µM | > 100 | 26.2 |  | 34.7 µM | 38.5 µM | 38.5 µM |  | 35.8 | 85.8 µM | 8.33 |  | 3.4 |  |  |  |  |  |  |
| CCN(CC)CCCNC(=O)c1ccccc1Nc1c(Cl)cccc1Cl |  |  | 21.3 | 21.3 |  | 7.86 µM |  |  | 10.7 µM | 27.6 | 7.45 µM |  |  |  |  |  |  |  |  |  |
| O=[N+]([O-])c1ccc(C2NC(=S)NC3c4cc([N+](=O)[O-])ccc4CCCC23)cc1 (stereo not drawn) | > 100 µM | > 100 µM | > 100 | > 100 | > 100 µM | > 100 µM | > 100 µM | > 100 µM | > 100 µM | > 100 | > 100 µM | 45.5 |  |  |  |  |  |  |  |  |
| Nc1n[nH]c(N)n1 | > 10000 µM | 8860 µM | > 9030 | > 10000 | > 10000 µM | > 10000 µM | 8220 µM | > 10000 µM | > 10000 µM | 9840 | > 9050 µM | 9580 |  |  |  |  |  |  |  |  |
| O=c1[nH]c(Br)nc2n[nH]nc12 | > 100 µM | > 100 µM | > 100 | > 100 | > 100 µM | > 100 µM | > 100 µM | > 100 µM | > 100 µM | > 100 | > 100 µM | > 100 |  |  |  |  |  |  |  |  |
